Measured values: patent US4994439A, “Transmembrane formulations for drug administration” (California Biotechnology Inc., priority 1989, dated 1991)

How the values were obtained:
[1] = Critical micellar concentration by rhodamine 6G method; type: physicochemical; conditions: for CMC expressed on a molar basis: for the mixture: total surfactant; for CMC (as percent w/v): rhodamine 6G method
Description: The CMC is not a single value, but a range of concentrations. Because the range is relatively narrow, a single concentration within this transition zone is defined as the CMC. The CMC for each individual molecule and for each mixture can be determined experimentally in variety of ways; that illustrated below is the rhodamine 6G method of Carey, M.C., et al J Colloid Interface Sci (1969) 31:382-396. In this method, a low concentration of rhodamine 6G is added as a probe in a series of dispersions or solutions of the material to be tested. Where the solute concentration is below the CMC the probe molecule has a lambdamax at 523 nm; above the CMC, the probe binds to the micelle, which causes the lambdamax to increase to approximately 532 nm. By plotting the wavelength of the maximum absorption of the rhodamine 6G probe as a function of concentration of test materials, two lines of differing slopes are obtained which intersect at the CMC. The value of the intersection is then taken as the value of the CMC for the particular dispersion.
When this procedure is conducted for solutions of STDHF, Solulan C-24, or a 1:1 mixture of these materials, the CMC values (as percent w/v) obtained are 0.14% for STDHF; 0.028% for Solulan C-24; and 0.012% for the mixture of the two--i.e., 0.006% STDHF plus 0.006% Solulan C-24. Thus, for the mixture of STDHF and Solulan C-24, the CMC for the mixture is lower than that for either component alone. These values establish minimum concentration levels needed for the invention composition, and also establish that the two components form mixed micelles. If there were two separate populations of micelles, the CMC as measured by the above-described method would be equal to that of Solulan C-24. The existence of mixed micelles can be verified with other data as described below.

[2] = Quasi-elastic light-scattering of micelles; type: physicochemical
Source text: Solulan C-24 forms micelles with a radius of 75 angstroms; STDHF forms micelles with a radius of 17 angstroms, and the mixture (1:1 w/w) forms micelles with a radius of 40 angstroms.

[3] = Transport of insulin across rat nasal tissue (plasma insulin, delivery via the nares); type: in vivo; conditions: 5IU/kg insulin intranasal, FIG. 5
Description: Efficacy in transport of insulin and of human growth hormone across rat nasal tissue was evaluated. Male Sprague-Dawley rats (Simonsen, Gilroy, CA, 240-300 gm) were anesthetized by subcutaneous injection of Acepromazine (3 mg/kg) followed 10 minutes later by intraperitoneal injections of inactin (100 mg/kg) for experiments shown in FIGS. 4-6 or by intraperitoneal (IP) injection of sodium pentobarbital (65 mg/kg), with additional doses given intravenously as necessary for experiments shown in FIGS. 7-8. A trachea tube was inserted to assist breathing.
In FIGS. 4-6, insulin or hGH was delivered directly via the nares; no esophageal cannula was inserted; the test solution (50 ul) was delivered 1 cm into the nasal cavity using PE 10 tubing attached to a Hamilton syringe.
In all cases, blood samples (0.5 ml) were drawn from a catheter in the right jugular vein and diluted with heparinized saline. Plasma (300-400 ul) was separated and stored at 4° C. for less than 48 hours prior to analysis of growth hormone using an immunoradiometric assay (Tandem R, Hybritech, Inc, San Diego, Calif.) or of insulin using a radioimmunoassay (Micromedic, ICN Micromedic Systems, Horsham, Pa.). […] Estimations of area under the curve (AUC) of plots of plasma insulin or hGH concentration versus time were calculated using the trapezoidal rule.

red blood cells = assay: Red blood cell (RBC) lysis as a measure of toxicity; type: cell-based; conditions: FIG. 3
Description: Consistent results were obtained when red blood cell (RBC) lysis was evaluated as a measure of toxicity and SGDHF was used as the fusidate component. […] Thus, the addition of the detergent appears to protect against the lytic effect of the fusidate.

Row | Compound | CMC expressed on a molar basis [1] | CMC (as percent w/v) [1] | micelle radius [2] | time course of plasma insulin level [3] | RBC lysis (red blood cells; concentration range of 0-0.3%) | RBC lysis (red blood cells; 0.3% concentration)
1 | CC(=O)O[C@H]1C[C@@]2(C)[C@@H](C[C@@H](O)[C@H]3[C@@]4(C)CC[C@@H](O)[C@@H](C)[C@@H]4CC[C@@]32C)/C1=C(\CCCC(C)C)C(=O)NCCS(=O)(=O)[O-].[Na+] [STDHF, sodium tauro-24,25-dihydrofusidate] | 2.0 mM | 0.14% | 17 angstroms | lower levels | – | –
2 | polyoxyethylene-24-cholesterol ether [Solulan C-24] | 0.19 mM | 0.028% | 75 angstroms | lower levels | low values of RBC lysis | –
3 | sodium glyco-24,25-dihydrofusidate [SGDHF] | – | – | – | – | – | 100%
